As usually defined, the IC50 is the point on the concentration scale where inhibition reaches its midpoint.

Data on 46 substances can be found in patent US20070203066A1, “Compositions and methods for inhibiting cellular proliferation” (priority 2005, published 2007).

The test system of the assay is HUVECs. Format: cell-based. Conditions: HUVEC proliferation, bFGF at 10 ng/ml or VEGF at 5 ng/ml, 48 hours, BrdU incorporation; read-out: IC50 on HUVECs. The method, then:
HUVECs were routinely cultured to near confluency in EGM media (Clontech, Mountain View, California). The cells were trypsinized and plated in a 96-well plate at 5,000 cells per well per 100 μl EBM supplemented with 2% FCS and antibiotics. The cells were allowed to adhere to the plate for at least 12 hours. Then, bFGF at 10 ng/ml or VEGF at 5 ng/ml, and various concentrations of peptide, were added to the wells. The cells were cultured for 48 hours at 37 ° C. in a 5% CO2 atmosphere. Cell proliferation was determined using a bromo-deoxyuridine (BrdU) incorporation method as described by the manufacturer. Inhibition of cell proliferation was assessed by BrdU incorporation.
In general terms: Incorporation of labelled thymidine or its analogues reports DNA synthesis.

Non-standard residues stand in square brackets, D forms with d. No end group written: not given here. *: point of attachment. Biotin = O=C1N[C@H]2[C@H](CS[C@H]2CCCCC(=O)*)N1; acyl = not defined here; Ahx = NCCCCCC(=O)O

Turning to “1 ([Ahx]RTRRRRRRQRVRIAYEEIFVRNM) [compound 1]”, the IC50 was below 10 µM.
As to “27 (Ac-RTRRRRRRQRVRIAYEEIFVRNM[Ahx]K; not fully specified) [compound 27]”, the IC50 lay within 10 to 30 µM.
“28 (Ac-RTRRRRRRQRVRIAYEEIFVRNM[Ahx]K-NH2; not fully specified (residue 25); also: homodimer via Ida linker on Lys25 side chain, Ida amino group carries Boc) [compound 28]”: the IC50 is below 10 µM.
As to “51 (Ac-KTKRKRKKQRVKIAYEEIFVQNMK; also: homodimer via Ida linker on Lys24 side chain) [compound 51]”, the IC50 is below 10 µM.
To “59 ([Ahx]RTRRRRRRQRVRIAYEEIFVRNM; also: homodimer of residues 1-24 via Ida linker on Ahx amino group) [compound 59]” belongs above 30 µM; to “104 (Ac-KTKRKRKKQRVKIIFVQNM; also: homodimer via C-terminal Lys linker) [compound 104]”, below 10 µM; to “128 (KTKRKRKKQRVKI[Ahx][Ahx]IF; also: dimer: C-terminus of Phe17 of each chain bound to one amino group of a Lysine linker) [compound 128]”, below 10 µM.
For “129 (TKRKRKKQRVKI[Ahx][Ahx]IF; also: dimer: C-terminus of Phe16 of each chain bound to one amino group of a Lysine linker) [compound 129]” the value was below 10 µM; for “135 (KRKRKKQRVKI[Ahx][Ahx]IF; also: dimer: C-terminus of Phe15 of each chain bound to one amino group of a Lysine linker) [compound 135]”, below 10 µM.
Take “166 (Biotin-TKRKRKKQRVKIIFV; also: Thr1 biotinylated) [compound 166]”: the IC50 was in the range of 10 to 30 µM.
Consider “168 (Ac-RRRRRQRVRIIFK; also: homodimer via GP3 linker on Lys13 side chains) [compound 168]”, for which the IC50 is below 10 µM.
On to “169 (Ac-KRRRRRQRVRIIF; also: homodimer via Ida linker on Lys1 side chains) [compound 169]”, for which the IC50 was below 10 µM.
Consider “170 (Ac-RRRRRQRVRIIFK; also: homodimer via Ida-PEG 20 kDa linker on Lys13 side chains) [compound 170]”, for which the half-maximal inhibitory concentration (IC50) is below 10 µM.
To “171 (Ac-RRRRRQRVRIIFK; also: homodimer via GP3-PEG 20 kDa linker on Lys13 side chains) [compound 171]” belongs below 10 µM.
To “172 (acyl-KRRRRRQRVRIIF; not fully specified (residue 1); reading uncertain; also: homodimer via Ida-PEG 20 kDa linker on Lys1 side chains, acyl group not given here) [compound 172]” belongs below 10 µM; to “173 (Ac-ARRRRQRVRIIF; also: homodimer: C-terminal Phe12 of each chain bound to one amino group of a Lys linker) [compound 173]”, below 10 µM.
To “174 (Ac-RARRRQRVRIIF; also: homodimer via C-terminal Lys linker) [compound 174]” belongs below 10 µM; to “175 (Ac-RRARRQRVRIIF; also: homodimer via C-terminal Lys linker) [compound 175]”, below 10 µM; to “176 (Ac-RRRARQRVRIIF; also: homodimer via C-terminal Lys linker) [compound 176]”, below 10 µM.
For the substance “177 (Ac-RRRRAQRVRIIF; also: homodimer via C-terminal Lys linker) [compound 177]”, the IC50 is below 10 µM.
To “178 (Ac-RRRRRQAVRIIF; also: dimer: C-terminus of Phe12 of each chain bound to one amino group of a Lys linker) [compound 178]” belongs below 10 µM; to “179 (Ac-RRRRRQRVAIIF; also: dimer: C-terminus of Phe12 of each chain bound to one amino group of a Lys linker) [compound 179]”, below 10 µM; to “184 (XRRRRQRVRIIF; Xaa = Acylated Histidine; Dimeric peptide wherein the C terminus of Phe in position 12 of one peptide chain is covalently bound to one of the amino groups of a Lysine linker and Phe of the remaining peptide chain is covalently bound to the other amino group of the Lysine linker.) [compound 184]”, below 10 µM.
For “185 (Ac-RHRRRQRVRIIF; also: homodimer via C-terminal Lys linker) [compound 185]” the value was below 10 µM.
For “186 (Ac-RRHRRQRVRIIF; also: homodimer via C-terminal Lys linker) [compound 186]”, the IC50 is below 10 µM.
As to “187 (Ac-RRRHRQRVRIIF; also: dimer: C-terminal Phe bound to an amino group of a Lys linker, 2 chains per Lys) [compound 187]”, the IC50 is below 10 µM.
For “188 (Ac-RRRRHQRVRIIF; also: dimer: C-terminal Phe bound to an amino group of a Lys linker, 2 chains per Lys) [compound 188]” the value was below 10 µM; for “189 (Ac-RRRRRQHVRIIF; also: dimer: C-terminal Phe bound to an amino group of a Lys linker, 2 chains per Lys) [compound 189]”, below 10 µM; for “190 (Ac-RRRRRQRVHIIF; also: dimer: C-terminal Phe bound to an amino group of a Lys linker, 2 chains per Lys) [compound 190]”, below 10 µM.
For the substance “191 (Ac-AARRRQRVRIIF; also: dimer: C-terminal Phe bound to an amino group of a Lys linker, 2 chains per Lys) [compound 191]”, the IC50 was below 10 µM.
With “192 (Ac-ARARRQRVRIIF; also: dimer: C-terminal Phe bound to an amino group of a Lys linker, 2 chains per Lys) [compound 192]”, the IC50 was below 10 µM.
With “193 (Ac-ARRARQRVRIIF; also: dimer: C-terminal Phe bound to an amino group of a Lys linker, 2 chains per Lys) [compound 193]”, the IC50 was below 10 µM.
For “194 (Ac-ARRRAQRVRIIF; also: dimer: C-terminal Phe bound to an amino group of a Lys linker, 2 chains per Lys) [compound 194]” the value was below 10 µM.
To “195 (Ac-ARRRRQAVRIIF; also: dimer: C-terminal Phe bound to an amino group of a Lys linker, 2 chains per Lys) [compound 195]” belongs below 10 µM; to “196 (Ac-ARRRRQRVAIIF; also: dimer: C-terminal Phe bound to an amino group of a Lys linker, 2 chains per Lys) [compound 196]”, below 10 µM.
Regarding “197 (Ac-RAARRQRVRIIF; also: dimer: C-terminal Phe bound to an amino group of a Lys linker, 2 chains per Lys) [compound 197]”, the IC50 is below 10 µM.
For “198 (Ac-RARARQRVRIIF; also: dimer: C-terminal Phe bound to an amino group of a Lys linker, 2 chains per Lys) [compound 198]” the value was below 10 µM; for “199 (Ac-RARRAQRVRIIF; also: dimer: C-terminal Phe bound to an amino group of a Lys linker, 2 chains per Lys) [compound 199]”, below 10 µM.
In the case of “200 (Ac-RARRRQAVRIIF; also: dimer: C-terminal Phe bound to an amino group of a Lys linker, 2 chains per Lys) [compound 200]”, the IC50 was below 10 µM.
With “201 (Ac-RARRRQRVAIIF; also: dimer: C-terminal Phe bound to an amino group of a Lys linker, 2 chains per Lys) [compound 201]”, the IC50 is below 10 µM.
For “202 (Ac-RRAARQRVRIIF; also: dimer: C-terminal Phe bound to an amino group of a Lys linker, 2 chains per Lys) [compound 202]”, the IC50 was below 10 µM.
For “203 (Ac-RRARAQRVRIIF; also: dimer: C-terminal Phe bound to an amino group of a Lys linker, 2 chains per Lys) [compound 203]” the value was below 10 µM; for “204 (Ac-RRARRQAVRIIF; also: dimer: C-terminal Phe bound to an amino group of a Lys linker, 2 chains per Lys) [compound 204]”, below 10 µM.
“205 (Ac-RRARRQRVAIIF; also: dimer: Phe C-termini joined via Lys linker) [compound 205]”: the IC50 is below 10 µM.
For “206 (Ac-RRRAAQRVRIIF; also: dimer: Phe C-termini joined via Lys linker) [compound 206]” the value was below 10 µM.
Take “207 (Ac-RRRARQAVRIIF; also: dimer: Phe C-termini joined via Lys linker) [compound 207]”: the IC50 was below 10 µM.
